Assay results as given in publication PMC6753139, “TRIM66 reads unmodified H3R2K4 and H3K56ac to respond to DNA damage in embryonic stem cells” (Nature Communications, 2019).

Target: T1, TRIM66-WT965-1160 (Homo sapiens, UniProt O15016)
T1 construct: ITC titration: titrating TRIM66-WT965-1160 with various histone H3 peptides; GST (N, cleaved yes); made in house; host or cells: Escherichia coli BL21 (DE3)
T1 sequence (O15016 1100-1295): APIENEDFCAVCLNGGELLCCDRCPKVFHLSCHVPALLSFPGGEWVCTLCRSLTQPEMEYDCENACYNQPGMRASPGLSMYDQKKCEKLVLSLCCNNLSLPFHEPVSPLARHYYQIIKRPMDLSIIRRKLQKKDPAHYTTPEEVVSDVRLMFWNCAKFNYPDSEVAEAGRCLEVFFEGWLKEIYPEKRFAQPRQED
Test: ITC, PHD-Bromodomain wild type
Assay type: binding
Conditions: ITC, MicroCal PEAQ-ITC, 25 °C, 20 mM Tris, 100 mM NaCl, pH 7.5; single measurement, error from curve fit; Weak binding = ITC curves cannot be fitted reliably; N.D. = no detectable binding
Description: We next performed the glutathione S-transferase (GST) pulldown assays of the TRIM66-WT965-1160 against the calf thymus histones to verify the histone-binding ability of TRIM66 PHD-Bromodomain. […] The PHD of TRIM66 shared a low conservation with those of ING4, PHF2, and BPTF, and lacked the conserved aromatic residues, which were necessary for binding H3K4me2/3[40]–[42] (Supplementary Fig. 2b). Nevertheless, TRIM66 was highly conserved in sequence and structure with the PHDs of TRIM24 and TRIM33 (Fig. 1c and Supplementary Fig. 2b), which were reported to bind H3K4me0[5],[6]; thus, we speculated that the PHD of TRIM66 could bind H3K4me0. To verify this hypothesis, we performed isothermal titration calorimetry (ITC)-based binding assays. […] Based on previous researches reporting the acetyl-lysine binding partners of Bromodomain[3]–[12], we chose a series of related peptides derived from H3 and H4, to test their interactions with TRIM66-WT965-1160 by ITC experiments. […] We further found the acetylated state of K56 was necessary for this binding (Supplementary Fig. 3b).
We next titrated the TRIM66-WT965-1160 with a series of R2-methylated H3 peptides through ITC assays. […] This finding was consistent with the structural observation that each NηH atom of the R2 formed a hydrogen bond with residues in protein (Fig. 2d).
The DNA fragments of human TRIM66_968-1160, TRIM24_824-1006, and TRIM33_882-1087 were amplified from a human bone marrow cDNA library using a PCR-based cloning strategy. The fragments of TRIM66-WT968-1160 were inserted into a pGEX-4T-1 plasmid (GE Healthcare). The fragments of TRIM24_824-1006 and TRIM33_882-1087 were ligated into a pET-SUMO-28a (+) plasmid (Novagen). The DNA fragments of TRIM66-MUT968-1160 and TRIM66-WT965-1160 with codon optimization were synthesized by General Biosystems (sequence was shown in Supplementary Methods) and inserted into a pGEXT-4T-1 plasmid (GE Healthcare). Mutants of TRIM66 PHD-Bromo were generated through PCR using the Mutant Best kit (Takara). The mutation of point mutant based on the codon-optimized DNA sequence of TRIM66-WT965-1160. All constructs were expressed in Escherichia coli BL21 (DE3). The construct of ASF1a1-156 inserted into a pRSFDuet plasmid (courtesy of Ruiming Xu Lab, Institute of Biophysics, Chinese Academy of Sciences) was expressed in E. coli BL21 (DE3) RIL. The construct of full-length H4 inserted into a pET3a plasmid was expressed in E. coli BL21 (DE3). The expression of full-length histone H3K56ac was performed in BL21 (DE3) cells transformed with pBK-AxcKRS3 and pET22b encoding H3 with amber codons at the K56 site[12]. The DNA fragment of full-length TRIM66 was synthesized by General Biosystems and ligated into fugw vector (Addgene). See the information of protein sequence in Supplementary Table 1.
The calorimetric experiments were performed at 25 °C using a MicroCal PEAQ-ITC. The proteins were dialyzed using a buffer containing 20 mM Tris and 100 mM NaCl at pH 7.5. Lyophilized peptides were dissolved in the same buffer and adjusted to pH 7.5 prior to use. Peptide concentrations were estimated from the quantitative NMR experiments[73],[74]. ITC measurements were performed via injection of 0.7–4 mM peptide into a cell containing 0.12 mM TRIM24-PHD-Bromo, 0.05 mM TRIM33 PHD-Bromo, and 0.05 or 0.11–0.15 mM TRIM66-PHD-Bromo (or its mutants). The ITC data were subsequently analyzed using the MicroCal PEAQ-ITC analysis software.

Molecule C[C@H](N)C(=O)N[C@@H](CCCNC(=N)N)C(=O)N[C@H](C(=O)N[C@@H](CCCCN)C(=O)N[C@@H](CCC(N)=O)C(=O)N[C@H](C(=O)N[C@@H](C)C(=O)N[C@@H](CCCNC(=N)N)C(=O)N[C@@H](CCCCN)C(=O)N[C@@H](CO)C(=O)N[C@H](C(=O)NCC(=O)O)[C@@H](C)O)[C@@H](C)O)[C@@H](C)O [H3_1-12] has a Kd of 15.7 ± 0.64 µM.
